From paper PMC9688225, “α-Lipoic Acid Derivatives as Allosteric Modulators for Targeting AMPA-Type Glutamate Receptors’ Gating Modules” (Cells, 2022)
Like-named read-outs stand apart in the source and are kept apart here.

Legend:
[1] = target: T1, GluA2 AMPA receptor subunit (flip isoform) (Homo sapiens, UniProt P42262); assay: Whole-cell patch-clamp electrophysiology, homomeric GluA2 expressed in HEK293 cells; format: cell-based; conditions: for Amplitude (glutamate + compound): 10 mM glutamate + 12 µM compound, −60 mV, pH 7.4, 22 °C, mean ± SEM; for Amplitude (glutamate + compound) / A/AI (current with glutamate alone / current with glutamate + compound): n = 10; for A/AI (current with glutamate alone / current with glutamate + compound): 10 mM glutamate, 12 µM compound; for IC50: Hill fit; for t deact (weighted deactivation time constant) / t des (weighted desensitization time constant): glutamate + 12 µM compound; for t deact (weighted deactivation time constant): glutamate alone 2.4±0.1 ms; for t des (weighted desensitization time constant): glutamate alone 2.6±0.1 ms
T1 construct: expressed in transfected cells; host or cells: HEK293
T1 sequence (P42262 25-883 isoform P42262-2 limits assumed): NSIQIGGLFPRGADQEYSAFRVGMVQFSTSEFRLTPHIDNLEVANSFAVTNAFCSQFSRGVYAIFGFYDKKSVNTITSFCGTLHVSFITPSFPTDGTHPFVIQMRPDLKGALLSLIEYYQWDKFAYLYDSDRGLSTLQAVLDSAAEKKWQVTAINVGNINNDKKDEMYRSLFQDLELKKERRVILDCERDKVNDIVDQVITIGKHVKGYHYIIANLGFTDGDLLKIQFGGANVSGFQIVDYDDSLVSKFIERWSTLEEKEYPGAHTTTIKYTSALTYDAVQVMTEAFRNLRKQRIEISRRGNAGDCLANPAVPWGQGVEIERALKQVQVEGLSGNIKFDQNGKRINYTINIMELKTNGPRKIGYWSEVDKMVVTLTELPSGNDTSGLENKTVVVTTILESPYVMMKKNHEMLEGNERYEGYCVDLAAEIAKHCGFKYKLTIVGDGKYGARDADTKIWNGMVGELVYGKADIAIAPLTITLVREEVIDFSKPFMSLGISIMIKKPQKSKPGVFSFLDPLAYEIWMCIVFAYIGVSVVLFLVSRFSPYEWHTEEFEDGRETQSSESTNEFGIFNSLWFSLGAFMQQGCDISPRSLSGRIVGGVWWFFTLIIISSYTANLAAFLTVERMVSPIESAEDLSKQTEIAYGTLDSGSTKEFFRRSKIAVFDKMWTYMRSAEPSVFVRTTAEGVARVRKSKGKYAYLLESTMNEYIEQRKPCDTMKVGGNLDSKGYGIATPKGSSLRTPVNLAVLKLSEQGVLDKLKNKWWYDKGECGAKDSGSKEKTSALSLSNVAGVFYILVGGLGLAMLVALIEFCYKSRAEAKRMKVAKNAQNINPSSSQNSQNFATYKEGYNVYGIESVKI
Method: (§1) Up to 20 μg of high-copy plasmid DNA was prepared using the QIAGEN Plasmid Mini Kit, the tubes were then centrifuged to extract the supernatant containing the plasmid DNA, ethanol was used to wash the DNA pellet, then centrifuged again and the supernatant was carefully removed as to not disturb the pellet, finally, the pellet was air-dried, and the DNA was re-dissolved in a suitable volume of buffer, (our prior study detailed the whole DNA preparation data). The flip isoform was used in all AMPAR subunits used in this investigation. AMPAR subunits were subcloned in pRK and expressed in the human embryonic kidney cells (HEK293) (The HEK293 cell line was obtained from Sigma, Schnelldorf, Germany). IPA (Integrated Patch Amplifier) recorded HEK293 cells 36–48 h after transfection using the patch-clamp method (Sutter Instruments, Novato, CA, USA). A high-speed piezo solution switcher was installed on a double-barreled glass (theta tube) to provide solutions fast, isolate receptor responses from any network influences, and preserve, as much as possible, the postsynaptic protein machinery. Thus, inhibition was measured by comparing the current recorded when glutamate alone was administered to the current observed when glutamate plus the compound of interest was delivered to the same cell. Before administering the α-LA compounds, experiments were conducted to determine the appropriate concentration to be delivered to the cells without harming them. Dichloromethane (12 µM) effect on GluA1 and GluA2 subunits was tested to ensure that it had no effect on AMPA receptor currents (Figure S8). The effect of α-LA compounds on AMPA subunits plateaued at a concentration of 12 µM because LA inhibits AMPA receptors at low concentrations and continues to inhibit them when LA concentrations are increased by 2 µM each interval, as shown in Figure S1. The concentration increased by 2 µM each time to ensure that no cells were harmed. The cells were washed for 20 s between α-LA derivatives (12 µM), and 10 mM glutamate was supplied alone after each α-LA compound to ensure cell health. Data analysis was carried out using Igor Pro7 (Wave Metrics, inc). For both desensitization (τw des) and deactivation rates (τw deact), an exponential fit to the current decline was obtained at 95% of peak to baseline current. The weighted tau (τw) was calculated as τw = (τf × af) + (τs × as), where af and as are the amplitudes of the fast (τf) and slow (τs) exponential components, respectively. Our study detailed the experimental data set.
(§2) Data are presented as mean ± standard error of the mean (SEM). The number of samples (n = 10) refers to the total number of tested HEK293 cells. Statistical differences between the groups and the wild type were examined by One Way Analysis of Variance (ANOVA), with values of p < 0.05 being considered to indicate statistical significance: (*) p < 0.05, (**) p < 0.01, (***) p < 0.001, ns, not significant. Concentration-response relationships were fitted as composite curves using GraphPad Prism version 6.01 (GraphPad Software, San Diego, CA, USA) to the Hill equation. All results were representative of at least three independent experiments.
(§3) Figure 2 Suppression of AMPA receptor currents by α-LA compounds. Graphs (a,c,e,g) present AMPA receptor currents (pA) before and after the administration of α-LA derivatives on GluA1, GluA1/2, GluA2, and GluA2/3 subunits. While (b,d,f,h) present the ratio A/AI, where A represents the current caused by 10 mM glutamate alone and AI represents the current induced by glutamate + α-LA (12 µM). The whole-cell current was measured at −60 mV, pH 7.4, and 22 °C. A one way analysis of variance (ANOVA) was performed for comparison: *** p < 0.001; ns, not significant. Ten cells were investigated for each LA compound. All values are shown as mean SEM.
(§4) Figure 3 The potency of LA compounds against AMPA receptor subunits. […]

[2] = system: EA.hy926 endothelial cells; set-up: method as in PMID 18026819; conditions: 40–80 µM α-lipoic acid; cited from earlier work
[3] = target: T2, GluA2/3 AMPA receptor subunits (flip isoform) (Homo sapiens, UniProt P42262+P42263); assay: Whole-cell patch-clamp electrophysiology, heteromeric GluA2/3 expressed in HEK293 cells; format: cell-based; conditions: for Amplitude (glutamate + compound): 10 mM glutamate + 12 µM compound, −60 mV, pH 7.4, 22 °C, mean ± SEM; for Amplitude (glutamate + compound) / A/AI (current with glutamate alone / current with glutamate + compound): n = 10; for A/AI (current with glutamate alone / current with glutamate + compound): 10 mM glutamate, 12 µM compound; for IC50: Hill fit; for t deact (weighted deactivation time constant) / t des (weighted desensitization time constant): glutamate + 12 µM compound; for t deact (weighted deactivation time constant): glutamate alone 2.4±0.3 ms; for t des (weighted desensitization time constant): glutamate alone 2.7±0.3 ms
T2 construct: expressed in transfected cells; host or cells: HEK293
T2 sequence (P42262 25-883 isoform P42262-2 limits assumed): as above
T2 sequence (P42263 29-894 isoform P42263-2 limits assumed): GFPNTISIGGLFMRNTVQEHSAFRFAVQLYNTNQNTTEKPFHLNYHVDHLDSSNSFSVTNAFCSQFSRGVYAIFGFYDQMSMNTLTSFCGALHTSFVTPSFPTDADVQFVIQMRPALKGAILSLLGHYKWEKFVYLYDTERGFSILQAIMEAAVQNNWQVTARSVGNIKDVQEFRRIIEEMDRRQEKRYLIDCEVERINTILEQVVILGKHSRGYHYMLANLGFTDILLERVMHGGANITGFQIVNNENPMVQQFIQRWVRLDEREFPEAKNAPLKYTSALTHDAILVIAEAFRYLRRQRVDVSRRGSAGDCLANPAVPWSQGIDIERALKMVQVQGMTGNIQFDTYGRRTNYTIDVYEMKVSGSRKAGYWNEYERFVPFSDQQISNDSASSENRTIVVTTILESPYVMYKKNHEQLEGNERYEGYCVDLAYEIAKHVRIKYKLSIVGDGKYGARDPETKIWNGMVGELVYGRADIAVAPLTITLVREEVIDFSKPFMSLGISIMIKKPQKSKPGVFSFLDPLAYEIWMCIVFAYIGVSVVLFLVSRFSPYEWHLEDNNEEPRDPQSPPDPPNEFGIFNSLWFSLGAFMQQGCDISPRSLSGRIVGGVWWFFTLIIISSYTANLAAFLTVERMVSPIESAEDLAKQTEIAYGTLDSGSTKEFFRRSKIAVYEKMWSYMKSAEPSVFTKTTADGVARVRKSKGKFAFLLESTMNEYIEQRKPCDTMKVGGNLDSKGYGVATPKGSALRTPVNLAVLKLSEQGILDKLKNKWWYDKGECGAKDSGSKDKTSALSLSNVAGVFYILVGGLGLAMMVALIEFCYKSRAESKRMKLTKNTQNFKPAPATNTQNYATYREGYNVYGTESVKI
Method: as §1, §2, §3, §4

HEK293 cells = system: HEK293 cells; set-up: method as in PMID 23780308; conditions: 8 µM α-lipoic acid; cited from earlier work
[4] = target: T3, GluA1 AMPA receptor subunit (flip isoform) (Homo sapiens, UniProt P42261); assay: Whole-cell patch-clamp electrophysiology, homomeric GluA1 expressed in HEK293 cells; format: cell-based; conditions: for Amplitude (glutamate + compound): 10 mM glutamate + 12 µM compound, −60 mV, pH 7.4, 22 °C, mean ± SEM; for Amplitude (glutamate + compound) / A/AI (current with glutamate alone / current with glutamate + compound): n = 10; for A/AI (current with glutamate alone / current with glutamate + compound): 10 mM glutamate, 12 µM compound; for IC50: Hill fit; for t deact (weighted deactivation time constant) / t des (weighted desensitization time constant): glutamate + 12 µM compound; for t deact (weighted deactivation time constant): glutamate alone 2.2±0.1 ms; for t des (weighted desensitization time constant): glutamate alone 2.3±0.1 ms
T3 construct: expressed in transfected cells; host or cells: HEK293
T3 sequence (P42261 19-906 isoform P42261-2 limits assumed): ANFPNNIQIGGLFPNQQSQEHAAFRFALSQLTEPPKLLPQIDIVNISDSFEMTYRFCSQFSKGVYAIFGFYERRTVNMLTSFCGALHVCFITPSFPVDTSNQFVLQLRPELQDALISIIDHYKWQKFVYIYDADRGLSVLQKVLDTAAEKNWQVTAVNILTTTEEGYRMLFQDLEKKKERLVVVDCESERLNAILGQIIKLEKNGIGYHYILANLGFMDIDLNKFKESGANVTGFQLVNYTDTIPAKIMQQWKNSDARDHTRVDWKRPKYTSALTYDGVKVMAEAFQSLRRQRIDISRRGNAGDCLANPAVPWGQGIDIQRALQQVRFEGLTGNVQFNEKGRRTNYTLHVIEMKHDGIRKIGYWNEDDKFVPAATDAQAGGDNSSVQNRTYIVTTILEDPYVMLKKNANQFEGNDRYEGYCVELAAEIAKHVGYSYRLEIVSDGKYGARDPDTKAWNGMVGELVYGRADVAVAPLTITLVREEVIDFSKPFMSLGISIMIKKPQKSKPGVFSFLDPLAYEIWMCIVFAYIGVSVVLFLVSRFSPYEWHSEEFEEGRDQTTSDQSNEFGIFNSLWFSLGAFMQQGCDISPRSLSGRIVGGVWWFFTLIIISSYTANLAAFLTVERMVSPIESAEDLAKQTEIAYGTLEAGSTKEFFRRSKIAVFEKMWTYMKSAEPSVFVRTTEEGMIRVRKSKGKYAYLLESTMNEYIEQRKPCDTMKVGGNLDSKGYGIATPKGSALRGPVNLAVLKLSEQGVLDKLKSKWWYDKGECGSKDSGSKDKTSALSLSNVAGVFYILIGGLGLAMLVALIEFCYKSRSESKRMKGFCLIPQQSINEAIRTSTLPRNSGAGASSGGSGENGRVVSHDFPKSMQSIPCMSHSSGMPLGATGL
Method: as §1, §2, §3, §4

[5] = target: T4, GluA1/2 AMPA receptor subunits (flip isoform) (Homo sapiens, UniProt P42261+P42262); assay: Whole-cell patch-clamp electrophysiology, heteromeric GluA1/2 expressed in HEK293 cells; format: cell-based; conditions: for Amplitude (glutamate + compound): 10 mM glutamate + 12 µM compound, −60 mV, pH 7.4, 22 °C, mean ± SEM; for Amplitude (glutamate + compound) / A/AI (current with glutamate alone / current with glutamate + compound): n = 10; for A/AI (current with glutamate alone / current with glutamate + compound): 10 mM glutamate, 12 µM compound; for IC50: Hill fit; for t deact (weighted deactivation time constant) / t des (weighted desensitization time constant): glutamate + 12 µM compound; for t deact (weighted deactivation time constant): glutamate alone 2.5±0.3 ms; for t des (weighted desensitization time constant): glutamate alone 5.3±0.4 ms
T4 construct: expressed in transfected cells; host or cells: HEK293
T4 sequence (P42261 19-906 isoform P42261-2 limits assumed): as above
T4 sequence (P42262 25-883 isoform P42262-2 limits assumed): as the sequence (P42262 25-883 isoform P42262-2 limits assumed) above
Method: as §1, §2, §3, §4

[6] = system: AMPA receptor subunits (GluA1, GluA2, GluA1/2, GluA2/3); assay: Whole-cell patch-clamp electrophysiology, summary over the AMPA receptor subunits in HEK293 cells; format: cell-based
Method: as §1, §2
The levels of inhibition of α-LA and its derivatives attracted our attention to assessing the potency of the compounds in a concentration-dependent manner. […] The concentration−inhibition curves were produced by administering glutamate alone at a concentration of 10 mM, followed by glutamate + α-LA derivatives at varying concentrations (in μM) for every recording point. Afterward, the cells were normalized back by administering glutamate alone. Since the glutamate concentration in the synaptic cleft constantly saturates the receptors, driving the response to a near maximum level, variability occurs because the maximum level changes. […]

[7] = whole-cell normalized peak amplitude, unit printed in the text, not in Table S6, read-out: IC50
[8] = all AMPA receptor subunits, 12 µM compound

SMILES | Amplitude (glutamate + compound) [1] | A/AI (current with glutamate alone / current with glutamate + compound) [1] | IC50 ([1]; read-out: Log IC50 (converted)) | t deact (weighted deactivation time constant) [1] | t des (weighted desensitization time constant) [1] | IC50 [1, 7] | Amplitude (glutamate + compound) [3] | A/AI (current with glutamate alone / current with glutamate + compound) [3] | IC50 ([3]; read-out: Log IC50 (converted)) | t deact (weighted deactivation time constant) [3] | t des (weighted desensitization time constant) [3] | IC50 [3, 7] | Amplitude (glutamate + compound) [4] | A/AI (current with glutamate alone / current with glutamate + compound) [4] | IC50 ([4]; read-out: Log IC50 (converted)) | t deact (weighted deactivation time constant) [4] | t des (weighted desensitization time constant) [4] | IC50 [4, 7] | Amplitude (glutamate + compound) [5] | A/AI (current with glutamate alone / current with glutamate + compound) [5] | other results
O=C(O)CCCCC1CCSS1 (stereo not drawn) [α-LA, alpha-Lipoic acid, reference compound] | 136±22 pA | 9.09±0.8 | 3.89 µM | 8.8 ± 0.5 ms | 1.5 ± 0.04 ms | 3.93 µM | 60±11.0 pA | 8.93±1.0 | 3.98 µM | 8.6 ± 0.7 ms | 1.6 ± 0.09 ms | 4.01 µM | 102±14.0 pA | 9.26±0.6 | 3.55 µM | 9.1 ± 0.6 ms | 1.3 ± 0.1 ms | 3.54 µM | 69±10.0 pA | 9.13±0.9 | toxicity to the cells [2]: without causing toxicity; harm to the cells (HEK293 cells): without noticing any harm; IC50 ([5]; read-out: Log IC50 (converted)): 3.89 µM; t deact (weighted deactivation time constant) [5]: 8.9 ± 0.5 ms; t des (weighted desensitization time constant) [5]: 3.3 ± 0.3 ms; IC50 [5, 7]: 3.86 µM; increase of the rate of AMPA receptor deactivation (τw deact) [6, 8]: about 4 fold; reduction in the rate of desensitization (τw des) [6, 8]: 2 fold; increase of the ratio A/AI ([6]; all AMPA receptor subunits, glutamate alone vs glutamate + compound): 9 fold; IC50 ([6]; over GluA1, GluA1/2, GluA2, GluA2/3, read-out: approximate IC50 against AMPA receptor subunits): 3.5 to 4 µM
O=C(CCCCC1CCSS1)OCCCCCCO (centres unmarked) [LA4, 1-Hydroxy-6-Lipoester] | 166±28 pA | 7.65±0.5 | 4.47 µM | 7.1 ± 0.4 ms | 1.9 ± 0.07 ms | 4.47 µM | 72±15.0 pA | 7.58±0.7 | 4.79 µM | 6.9 ± 0.5 ms | 2.0 ± 0.1 ms | 4.76 µM | 121±18 pA | 7.79±0.5 | 4.17 µM | 7.5 ± 0.3 ms | 1.8 ± 0.1 ms | 4.18 µM | 87±13.0 pA | 7.70±0.7 | IC50 ([5]; read-out: Log IC50 (converted)): 4.37 µM; t deact (weighted deactivation time constant) [5]: 7.4 ± 0.4 ms; t des (weighted desensitization time constant) [5]: 3.7 ± 0.3 ms; IC50 [5, 7]: 4.41 µM; decrease in the peak current of the AMPARs [6, 8]: roughly 8 fold; increase of the rate of AMPA receptor deactivation (τw deact) [6, 8]: roughly 3 fold
